Assay results reported in ChEMBL document CHEMBL1128469, “Synthesis and biochemical evaluation of adenosylspermidine, a nucleoside-polyamine adduct inhibitor of spermidine synthase” (J Med Chem, 1995).

How the values were obtained:
[1] = biological target: Spermine synthase (Rattus norvegicus); assay: Inhibition of Spermidine aminopropyltransferase (SAPT) in rat liver.
Spermidine synthase = biological target: T1, Spermidine synthase (Rattus norvegicus, UniProt Q99MI5); assay: Inhibition of Putrescine aminopropyltransferase (PAPT) in rat liver.
T1 sequence (Q99MI5 whole entry): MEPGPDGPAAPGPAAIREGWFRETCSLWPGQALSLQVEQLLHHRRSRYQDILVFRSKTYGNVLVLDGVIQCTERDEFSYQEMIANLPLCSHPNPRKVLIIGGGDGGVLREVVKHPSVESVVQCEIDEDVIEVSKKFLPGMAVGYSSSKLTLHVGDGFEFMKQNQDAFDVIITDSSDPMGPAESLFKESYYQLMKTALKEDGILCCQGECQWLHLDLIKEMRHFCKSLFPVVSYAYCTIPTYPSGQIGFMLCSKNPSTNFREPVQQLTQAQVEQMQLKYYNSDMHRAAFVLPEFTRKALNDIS

Ornithine decarboxylase = biological target: T2, Ornithine decarboxylase (Rattus norvegicus, UniProt P09057); assay: Inhibition of Ornithine decarboxylase in rat liver; Not inhibited
T2 sequence (P09057 whole entry): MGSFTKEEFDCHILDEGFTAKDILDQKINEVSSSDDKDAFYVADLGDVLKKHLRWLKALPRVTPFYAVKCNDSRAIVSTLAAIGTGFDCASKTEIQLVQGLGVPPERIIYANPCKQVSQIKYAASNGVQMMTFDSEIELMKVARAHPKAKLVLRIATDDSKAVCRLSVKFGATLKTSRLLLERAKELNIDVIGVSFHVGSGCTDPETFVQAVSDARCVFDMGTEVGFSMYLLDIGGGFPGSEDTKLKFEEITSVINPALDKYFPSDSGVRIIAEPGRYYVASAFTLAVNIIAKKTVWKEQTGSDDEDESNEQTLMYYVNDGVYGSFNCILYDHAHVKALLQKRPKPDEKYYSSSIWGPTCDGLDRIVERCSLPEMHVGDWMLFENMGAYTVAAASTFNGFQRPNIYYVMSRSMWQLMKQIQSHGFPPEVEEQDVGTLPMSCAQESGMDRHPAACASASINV

[2] = biological target: T3, S-adenosylmethionine decarboxylase proenzyme (Homo sapiens, UniProt P17707); assay: Inhibitory activity against S-adenosyl-L-methionine decarboxylase was determined; NI means No inhibition
T3 sequence (P17707 whole entry): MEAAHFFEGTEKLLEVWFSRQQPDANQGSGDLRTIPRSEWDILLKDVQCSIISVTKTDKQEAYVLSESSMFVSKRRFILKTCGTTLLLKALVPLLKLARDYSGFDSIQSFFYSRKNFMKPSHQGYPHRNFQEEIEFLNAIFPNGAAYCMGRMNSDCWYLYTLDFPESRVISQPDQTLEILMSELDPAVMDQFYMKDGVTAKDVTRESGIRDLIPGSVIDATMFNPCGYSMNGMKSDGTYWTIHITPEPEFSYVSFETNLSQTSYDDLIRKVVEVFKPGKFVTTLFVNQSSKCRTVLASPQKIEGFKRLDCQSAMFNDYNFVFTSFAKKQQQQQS

SMILES | IC50 [1] [µM] | IC50 (Spermidine synthase) [µM] | IC50 (Ornithine decarboxylase) | IC50 [2]
NCCCNCCCCCC(CCN)SC[C@H]1OC(n2cnc3c(N)ncnc32)[C@H](O)[C@@H]1O (some centres undefined) | 0.05 | > 10 | – | –
NCCCCNC(CCN)CC[C@H]1OC(n2cnc3c(N)ncnc32)[C@H](O)[C@@H]1O (some centres undefined) | – | – | No inhibition | Not Active
